In brackets after ≈: the same amount, converted by molar mass. Structures can show the parent of a compound that is named as a salt.
What was measured:
physchem = conditions: pH 7.4
[1] = PAMPA, pH 7.4
[2] = tested on: NQO1 enzymatic activity (Nrf2 transcriptional activity); experiment: NQO1 enzyme activity assay in Hepa1c1c7 cells; assay type: cell-based, mouse; conditions: Hepa1c1c7, 24 h
[3] = tested on: Hepa1c1c7 mouse hepatoma cells; experiment: Cytotoxicity seen in the NQO1 assay; assay type: cell-based
[4] = molecular target: Keap1 Kelch domain protein (Homo sapiens, UniProt Q14145); conditions: 10 μM compound, 5 μM Keap1; Ti Keap1 + vehicle 61.3 °C
[5] = tested on: ARPE19 retinal pigment epithelial cells; conditions: human
in vitro = conditions: human, Cytotoxicity IC50 concentration

Chain of Keap1 Kelch domain protein (Q14145 321-609 limits assumed): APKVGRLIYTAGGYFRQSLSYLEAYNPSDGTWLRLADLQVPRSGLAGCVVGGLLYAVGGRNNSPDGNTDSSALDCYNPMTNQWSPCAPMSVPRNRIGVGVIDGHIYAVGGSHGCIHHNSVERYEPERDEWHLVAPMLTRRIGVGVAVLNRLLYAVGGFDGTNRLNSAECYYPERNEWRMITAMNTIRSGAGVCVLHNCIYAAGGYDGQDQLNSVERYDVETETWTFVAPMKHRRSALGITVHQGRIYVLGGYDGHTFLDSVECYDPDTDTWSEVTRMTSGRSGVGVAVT

Structure (SMILES)	solubility (physchem) [µg/mL]	also measured
COc1ccc(S(=O)(=O)N(Cc2nnn[nH]2)c2ccc(N(CC(=O)O)S(=O)(=O)c3ccc(OC)cc3)c(OCc3ccccc3)c2)cc1 [Compound 51, N-(4-((N-((1H-Tetrazol-5-yl)methyl)-4-methoxyphenyl)sulfonamido)-2-(benzyloxy)phenyl)-N-((4-methoxyphenyl)sulfonyl)glycine]	254 (≈ 366 µM)	–
COc1ccc(S(=O)(=O)N(CC(=O)O)c2ccc(N(CC(=O)O)S(=O)(=O)c3ccc(OC)cc3)c(OCc3cccc(OC)c3)c2)cc1 [Compound 38, 2,2′-((2-((3-Methoxybenzyl)oxy)-1,4-phenylene)bis(((4-methoxyphenyl)sulfonyl)azanediyl))diacetic Acid]	379 (≈ 541 µM)	–
COc1ccc(S(=O)(=O)N(CC(=O)O)c2ccc(N(Cc3nnn[nH]3)S(=O)(=O)c3ccc(OC)cc3)c(OCc3ccccc3)c2)cc1 [Compound 52, N-(4-((N-((1H-Tetrazol-5-yl)methyl)-4-methoxyphenyl)sulfonamido)-3-(benzyloxy)phenyl)-N-((4-methoxyphenyl)sulfonyl)glycine]	256 (≈ 368 µM)	–
COc1ccc(S(=O)(=O)N(CC(N)=O)c2ccc(N(CC(N)=O)S(=O)(=O)c3ccc(OC)cc3)c(OCc3ccccc3)c2)cc1 [Compound 40, 2,2′-((2-(Benzyloxy)-1,4-phenylene)bis(((4-methoxyphenyl)sulfonyl)azanediyl))diacetamide]	< 50	–
COc1ccc(S(=O)(=O)N(CC(=O)O)c2ccc(N(CC(=O)O)S(=O)(=O)c3ccc(OC)cc3)c(OCc3ccccc3)c2)cc1 [Compound 11, 2,2′-((2-(Benzyloxy)-1,4-phenylene)bis(((4-methoxyphenyl)sulfonyl)azanediyl))diacetic Acid]	348 (≈ 519 µM)	–
CCCCOc1cc(N(CC(=O)O)S(=O)(=O)c2ccc(OC)cc2)ccc1N(CC(=O)O)S(=O)(=O)c1ccc(OC)cc1 [Compound 32, 2,2′-((2-Butoxy-1,4-phenylene)bis(((4-methoxyphenyl)sulfonyl)azanediyl))diacetic Acid]	362 (≈ 569 µM)	–
COc1ccc(S(=O)(=O)N(CC(=O)O)c2ccc(N(CC(=O)O)S(=O)(=O)c3ccc(OC)cc3)c(OC)c2)cc1 [Compound 10, 2,2′-((2-Methoxy-1,4-phenylene)bis(((4-methoxyphenyl)sulfonyl)azanediyl))diacetic Acid]	271 (≈ 456 µM)	–
COc1ccc(S(=O)(=O)N(CC(=O)O)c2ccc(N(CC(=O)O)S(=O)(=O)c3ccc(OC)cc3)c(O)c2)cc1 [Compound 39, 2,2′-((2-Hydroxy-1,4-phenylene)bis(((4-methoxyphenyl)sulfonyl)azanediyl))diacetic Acid]	343 (≈ 591 µM)	–
COc1ccc(S(=O)(=O)N(CC(=O)O)c2ccc(N(CC(=O)O)S(=O)(=O)c3ccc(OC)cc3)c(Oc3ccccc3)c2)cc1 [Compound 33, 2,2′-((2-Phenoxy-1,4-phenylene)bis(((4-methoxyphenyl)sulfonyl)azanediyl))diacetic Acid]	363 (≈ 553 µM)	–
COc1ccc(S(=O)(=O)N(CC(=O)O)c2ccc(N(CC(=O)O)S(=O)(=O)c3ccc(OC)cc3)c(OC(C)C)c2)cc1 [Compound 37, 2,2′-((2-Isopropoxy-1,4-phenylene)bis(((4-methoxyphenyl)sulfonyl)azanediyl))diacetic Acid]	288 (≈ 463 µM)	logPe (permeability coefficient) [1]: -4.74
CCOc1cc(N(CC(=O)O)S(=O)(=O)c2ccc(OC)cc2)ccc1N(CC(=O)O)S(=O)(=O)c1ccc(OC)cc1 [Compound 31, 2,2′-((2-Ethoxy-1,4-phenylene)bis(((4-methoxyphenyl)sulfonyl)azanediyl))diacetic Acid]	337 (≈ 554 µM)	–
COC(=O)[C@]12CCC(C)(C)C[C@H]1[C@H]1C(=O)C=C3[C@@]4(C)C=C(C#N)C(=O)C(C)(C)[C@@H]4CC[C@@]3(C)[C@]1(C)CC2 [CDDO-Me, bardoxolone methyl]	–	NQO1 induction, concentration-response [2]: Dose-dependent induction; Concentration above which cytotoxic in NQO1 assay [3]: higher than 1 μM
COc1ccc(S(=O)(=O)N(CC(=O)O)c2ccc(N(CC(=O)O)S(=O)(=O)c3ccc(OC)cc3)c(-c3ccccc3)c2)cc1 [Compound 34, 2,2′-([1,1′-Biphenyl]-2,5-diylbis(((4-methoxyphenyl)sulfonyl)azanediyl))diacetic Acid]	298 (≈ 465 µM)	DSF ΔTi [4]: 0.1–1.2 °C
CCCOc1cc(N(CC(=O)O)S(=O)(=O)c2ccc(OC)cc2)ccc1N(CC(=O)O)S(=O)(=O)c1ccc(OC)cc1 [Compound 36, 2,2′-((2-Propoxy-1,4-phenylene)bis(((4-methoxyphenyl)sulfonyl)azanediyl))diacetic Acid]	347 (≈ 557 µM)	–
C[S+]([O-])CCCCN=C=S (centres unmarked) [Sulforaphane, sulforaphane]	–	IC50 [5]: ~10 µM; IC50 (in vitro): 9.89 ± 2.91 µM
COc1ccc(S(=O)(=O)N(CC#N)c2ccc(N(CC#N)S(=O)(=O)c3ccc(OC)cc3)c(OCc3ccccc3)c2)cc1 [Compound 41, N,N′-[2-(Benzyloxy)-1,4-phenylene]bis[N-(cyanomethyl)-4-methoxybenzenesulfonamide]]	< 50	logPe (permeability coefficient) [1]: -4.19
COc1ccc(S(=O)(=O)N(Cc2nnn[nH]2)c2ccc(N(Cc3nnn[nH]3)S(=O)(=O)c3ccc(OC)cc3)c(OCc3ccccc3)c2)cc1 [Compound 42, N-((1H-Tetrazol-5-yl)methyl)-N-(4-((N-((1H-tetrazol-5-yl)methyl)-4-methoxyphenyl)sulfonamido)-2-(benzyloxy)phenyl)-4-methoxybenzenesulfonamide]	< 50	–
COC(=O)/C=C/C(=O)OC [DMF, dimethyl fumarate]	–	NQO1 induction, concentration-response [2]: Dose-dependent induction
